Legend:
3T3-L1 preadipocytes = experiment: Induced differentiation of 3T3-L1 preadipocytes, Oil Red O staining of lipid droplets; type: cell-based; conditions: 10 mM each, 8 days of induced differentiation, P<0.01
Experimental: 2 days after the 3T3-L1 preadipocytes grew to complete confluence, the induction of differentiation began. That is, the DMEM complete medium was discarded, and replaced with DMEM complete medium containing 5 ug/ml insulin, 0.5 mM IBMX, 1 uM dexamethasone, and after 2 days, it was replaced with DMEM complete culture medium containing 5 ug/ml insulin and cultured for 2 days. Then DMEM complete culture medium was used to continue culturing for 2 days. From the first day of differentiation, the experimental group was given a culture medium containing 10 mM GX999 or 10 mM GX008A to intervene in the whole process of cell differentiation, and the control group was added with conventional inducers.
After 8 days of induced differentiation, the cells were fixed with 4% paraformaldehyde for 30 minutes, washed 3 times with balanced salt solution (PBS), incubated with oil red O staining solution for 60 minutes, the pipetted liquid was rinsed 3 times with PBS, and observed for the formation of lipid droplets under an inverted microscope and a video was taken. Isopropanol (200 ul per well) was added, and the absorbance at A490 nm was measured with a microplate reader after 5 minutes.
Based on the results of the above-mentioned combination application experiment, the drug concentration and combination concentration were selected. […]

[1] = system: alloxan-damaged RINm5f cells; experiment: MTT cell viability assay, protection against alloxan-induced islet β-cell damage (with Calcusyn combination index); type: cell-based, rat; conditions: for combination index CI value with alloxan: agent 0.5, 1, 5, 10 mM with alloxan 15 mM, Calcusyn, >1.0 = antagonistic (cytoprotective); for cell survival rate of alloxan-damaged pancreatic β-cells, single agent: alloxan 15 mM, agent 0.5, 1, 5, 10 mM, pretreated 1 h, 24 h, significant vs AXN group at 5 mM (P<0.05) and 10 mM (P<0.01)
Experimental: RINm5F cells were cultured to the logarithmic growth phase, inoculated in 96-well culture plates at a cell density of 5×10^4/ml, cultured for 24 hours, and then drugs were added. The experiment was divided into a negative control group, an alloxan damage group (AXN group) and a protection group. Both the AXN group and the protection group were added with alloxan at a final concentration of 15 mM, and the protection group was added with different concentrations of GX999 and GX008A, pretreated for 1h. The experiment set up 4 duplicate wells and the experiment was repeated three times.
RINm5F cells were cultured to the logarithmic growth phase, inoculated in 96-well culture plates at a cell density of 5×10^4/ml, cultured for 24 hours, and then drugs were added. The experiment was divided into a negative control group, an alloxan damage group (AXN group) and a protection group. Both the AXN group and the protection group were added with alloxan at a final concentration of 15 mM, and the protection group was added with different concentrations of GX999 and GX008A, pretreated for 1h. The experiment set up 4 duplicate wells and they were placed in a carbon dioxide incubator for regular culture for 24 hours. MTT 20 ul (5 mg/mL) was added to each well and incubated for 4 hours. Then the culture medium was discarded, 150 ul DMSO was added to each well and shaken for 10 minutes, and the OD value of the optical density was detected at 490 nm with a microplate reader.
According to the inhibition rates of different concentrations of drugs alone and in combination, the Calcusyn software was used to analyze and process data such as the inhibition rates of GX999 and GX008A alone at different concentrations and the inhibition rates in combination at corresponding concentrations to obtain the combination index (CI) value. According to the definition of combination index, the synergistic effect of drugs was judged, and the synergistic effect is indicated by less than 1.0, and the antagonistic effect is indicated by greater than 1.0.
The experiment set up a negative control group and a damage group with different concentrations of alloxan (concentrations of 4 mM, 7 mM, 10 mM, 15 mM, 20 mM), after 24 hours of exposure, then 4 duplicate wells were set up, and the MTT method was used to detect the cell survival rate. […] Compared with the blank control group, the P value was less than 0.01, and the difference was statistically significant.

3T3L1 preadipocytes = experiment: MTT cell viability assay, proliferation of 3T3L1 preadipocytes (with Calcusyn combination index); type: cell-based; conditions: 48 hours; for survival rate of 3T3L1 cells / cell proliferation, single agent: GX999 10-60 mM, GX008A 5-200 mM, P<0.01 vs blank control
Experimental: 3T3L1 cells were placed in DMEM high-glucose medium containing 10% calf serum and cultured at 37° C. and 5% CO2. When the cells reached 90% confluence, they were digested with 0.25% trypsin, passaged, and inoculated in a 96-well cell culture plate.
The logarithmic growth phase cells were taken and inoculated in a 96-well plate at a density of 5×10^3 cells/mL, with 4 replicate wells in each group. After the cells grew to about 40%-50% confluence, the fresh drug-containing medium was replaced with and they were divided into a GX999 alone group, a GX008A group, and a GX999+GX008A combination group. After culturing for 48h, MTT 20 ul (5 mg/mL) was added to each well and incubated for 4h. Then the culture medium was discarded, 150 ul DMSO was added to each well and shaken for 10 minutes, and the OD value of the optical density was detected at 490 nm with a microplate reader, and the cell survival rate was calculated according to the formula. Analysis of drug synergy:
Combination method: 10 mM GX999 in combination with GX008A (0, 5, 10, 30, 50 mM) group. According to the inhibition rates of different concentrations of drugs alone and in combination, the Calcusyn software was used to analyze and process data such as the inhibition rates of GX999 and GX008A alone at different concentrations and the inhibition rates in combination at corresponding concentrations to obtain the combination index (CI) value. According to the definition of combination index, the synergistic effect of drugs was judged, and the synergistic effect is indicated by less than 1.0, and the antagonistic effect is indicated by greater than 1.0.

SMILES | lipid droplet content in cells compared with the differentiation group (3T3-L1 preadipocytes) | combination index CI value with alloxan [1] | cell survival rate of alloxan-damaged pancreatic β-cells, single agent [1] | survival rate of 3T3L1 cells / cell proliferation, single agent (3T3L1 preadipocytes) | cell survival rate / cell proliferation (alloxan cell damage model) ([1]; alloxan 4, 7, 10, 15, 20 mM, 24 hours, RINm5f cells, MTT) | IC50 (3T3L1 preadipocytes; 3T3L1 cells, MTT, read-out: IC50 (3T3L1 cell survival rate))
C[C@H](CC[C@@H](O[C@@H]1O[C@H](CO[C@@H]2O[C@H](CO)[C@@H](O)[C@H](O)[C@H]2O)[C@@H](O)[C@H](O)[C@H]1O[C@@H]1O[C@H](CO)[C@@H](O)[C@H](O)[C@H]1O)C(C)(C)O)[C@H]1CC[C@@]2(C)[C@@H]3CC=C4[C@@H](CC[C@H](O[C@@H]5O[C@H](CO[C@@H]6O[C@H](CO)[C@@H](O)[C@H](O)[C@H]6O)[C@@H](O)[C@H](O)[C@H]5O)C4(C)C)[C@]3(C)[C@H](O)C[C@]12C [GX008A, Mogroside V] | significantly reduced | greater than 1.0 | the cell survival rate could be significantly improved | inhibited cell proliferation in a concentration-dependent manner |  | 
O=C1NC(=O)C(=O)C(=O)N1 [alloxan, reference compound] |  |  |  |  | inhibited cell proliferation in a concentration-dependent manner | 
NC(=O)c1ccc[n+]([C@@H]2O[C@H](COP(=O)([O-])O)[C@@H](O)[C@H]2O)c1 [GX999, Nicotinamide mononucleotide] | significantly reduced | greater than 1.0 | the cell survival rate could be significantly improved | inhibited cell proliferation in a concentration-dependent manner |  | 51.7 ± 1.5 mM
